Measurements as given in patent publication US20040067883A1, “Use of matrix metalloprotease inhibitors for the treatment of cancer” (priority 2000, published 2004).

Experiments:
[1] = test system: UM-SCC-1 cells; experiment: Cell growth curves (MTT-vital stain); assay type: cell-based, human; details: 5 μM and 10 μM, up to 5 days, medium with 10% FBS
[2] = target: T1, p38γ (Homo sapiens, UniProt P53778); details: reported (ref. 27); cited from earlier work
T1 sequence (P53778 1-367): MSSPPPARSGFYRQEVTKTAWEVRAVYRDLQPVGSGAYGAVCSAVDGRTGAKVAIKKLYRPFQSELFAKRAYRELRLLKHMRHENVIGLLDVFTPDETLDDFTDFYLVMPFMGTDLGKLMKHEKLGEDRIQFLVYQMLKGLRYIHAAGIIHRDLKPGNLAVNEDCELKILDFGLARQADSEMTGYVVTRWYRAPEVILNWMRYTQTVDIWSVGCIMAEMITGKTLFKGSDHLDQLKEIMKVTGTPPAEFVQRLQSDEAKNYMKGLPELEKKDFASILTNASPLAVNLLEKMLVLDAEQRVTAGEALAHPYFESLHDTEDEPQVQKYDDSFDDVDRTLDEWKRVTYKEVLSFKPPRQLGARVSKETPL

[3] = target: T2, p38δ (Homo sapiens, UniProt O15264); details: reported (ref. 27); cited from earlier work
T2 sequence (O15264 1-365): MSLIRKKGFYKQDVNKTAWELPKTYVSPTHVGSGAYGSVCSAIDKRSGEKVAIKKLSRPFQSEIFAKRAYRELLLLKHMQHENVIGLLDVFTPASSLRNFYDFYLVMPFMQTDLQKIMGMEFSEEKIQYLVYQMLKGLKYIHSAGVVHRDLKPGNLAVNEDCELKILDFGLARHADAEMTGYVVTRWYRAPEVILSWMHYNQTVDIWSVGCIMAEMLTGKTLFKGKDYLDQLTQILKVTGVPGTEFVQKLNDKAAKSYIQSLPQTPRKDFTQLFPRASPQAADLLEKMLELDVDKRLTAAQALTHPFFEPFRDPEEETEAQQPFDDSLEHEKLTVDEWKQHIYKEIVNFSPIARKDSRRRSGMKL

[4] = test system: UM-SCC-1 cells; experiment: In vitro invasion assay on Matrigel coated filters; assay type: cell-based, human; details: 60 hours, serum-free medium, +/− S.E., 3 dishes
Method: Invasion assays were performed as described (20, 25) using filters with 8 μm pore size coated with ⅓ diluted Matrigel®/SFM (Becton Dickinson, Bedford, Mass.). […] For experiments utilizing a mouse monoclonal MMP-9 Antibody (#IM09L, Oncogene Research Products, Cambridge, Mass.) (0.5, 1, and 10 μg/ml) cells were either plated out in SFM plus antibody of SFM plus similar amounts of preimmune serum. The amount of invasion was determined on the basis of the MTT-activity on the lower side of the filter as a percentage of the total activity in the chamber.
The concentration of the carrier (DMSO) was maintained at 0.1%. […] The data are typical of triplicate experiments.
Invasion is expressed as the percentage of cells invading through Matrigel®. Invasion upon treatment with varying concentrations of the antibody recognizing the active and latent form of MMP-9 or preimmune serum provided by the manufacturer is expressed as average percentage+/−S.E. and represents 3 dishes in each group. The data are typical of triplicate experiments.

[5] = test system: UMSCC-1; details: after treatment with phorbol myristate acetate (PMA); cited from earlier work
[6] = test system: MMP-9; details: after treatment with phorbol myristate acetate (PMA); cited from earlier work
[7] = test system: matrix-metalloproteases; details: cited from earlier work

Compound | effect on cell growth [1] | inhibition of p38γ [2] | inhibition of p38δ [3] | reduction of in-vitro invasion ([4]; 5 μM) | reduction of in-vitro invasion ([4]; 10 μM) | inhibition of enhanced in-vitro invasiveness [5] | inhibition of enhanced MMP-9 secretion [6] | IC50 value [7]
C[S+]([O-])c1ccc(-c2nc(-c3ccncc3)c(-c3ccc(F)cc3)[nH]2)cc1 (centres unmarked) [SB 203580] | does not affect cell growth | not inhibited | not inhibited | 43+/−9% | 69+/−8% | could be inhibited | could be inhibited | 
CNC(=O)[C@@H](NC(=O)[C@H](CC(C)C)[C@H](O)C(=O)NO)C(C)(C)C [marimastat] |  |  |  |  |  |  |  | micromolar range
